Laboratory results as given in patent US8623377B2, “Joint-homing peptides and uses thereof” (University of Maryland, Baltimore, priority 2011, dated 2014).

How the values were obtained:
[1] = test system: human synovial tissue engrafted s.c.; settings: human synovial tissue engrafted s.c. in SCID mice; cited from earlier work
HUVECs = assay: Endothelial tube (tubule) formation on Matrigel with VEGF; format: cell-based, human; settings: VEGF 10 ng/mL, peptide 0-100 μg/mL
Description: FIG. 4A: Draining lymph node leukocytes from arthritic rats were dye-tagged with PKH67 and injected i.v. into arthritic rats. One group of rats was left untreated, and the other groups were treated with ADK or NQR peptide. After 24 hours, the synovium-infiltrating cells (SICs) were harvested from the joints, subjected to cytospin, and analyzed by fluorescence microscopy (left). In parallel, another set of synovium-infiltrating cells were stained with PE-labeled anti-CD3 or anti-CD 11b/c+ antibody and analyzed by flow cytometry (right). FIG. 4B: HUVECs were cultured on Matrigel-coated wells for 24 hours in the presence of VEGF (10 ng/mL) and various concentrations (0-100 μg/mL) of NQR (left), ADK (center), and RGD (right) peptides. The branches of vessel-like tubes were counted. A reprensentative set of results is shown. *P<0.05, compared with the VEGF-alone control.
HUVECs (1×10^4) were cultured in 80 μL/well of growth factor-reduced Matrigel (BD Biosciences) in a 96-well plate in 100 μL/well of F-12K medium (with no supplements). These cells were then treated for 20 h with VEGF (R&D Systems) in the presence or absence of different concentrations of peptides (NQR, ADK, or RGD). Tubule formation was observed under a microscope, quantitated, and photographed.

[2] = test system: HUVECs attachment to vitronectin; assay: Attachment of HUVECs to vitronectin; format: cell-based, human; settings: peptide 30-800 μg/mL, 1 h on vitronectin-coated wells
Description: HUVECs were first suspended in F-12K medium containing the indicated concentrations of NQR, AK or RGD peptide and then incubated for 1 h in microtiter wells coated with vitronectin. The number of cells that attached to vitronectin was quantified. The results of three independent experiments are shown. *P<0.05, compared with the baseline control.
The attachment of HUVECs to vitrnectin was quantified as described (37, 38). Microtiter wells were coated overnight at 4° C. with 2 μg/mL of vitronectin (BD Biosciences). These wells were then blocked for 1 h at 37° C. with 10 mg/mL of BSA (Sigma-Aldrich). In parallel, HUVECs (1.5×10^5 cells/mL) suspended in F-12K medium containing 10% FBS were incubated for 15 min at 37° C. with different concentrations (30-800 μg/mL) of NQR, ADK, or RGD peptide. Thereafter, this cell suspension 100 μL/well) was added to the vitronectin-coated wells, followed by incubation at 37° C. for 1 h. After washing, the number of attached cells was determined using crystal violet (Fisher Scientific).

ERK1/2 = assay: VEGF-induced signaling in HUVECs, Western blot p-ERK1/2; format: cell-based, human; settings: peptide 10, 50, 100 μg/mL 1 h, then VEGF 10 ng/mL 20 min
Description: (§1) FIG. 6A: HUVECs were stimulated with VEGF and treated with the indicated concentrations of peptides. Phosphorylated ERK1/2 and Akt, as well as total ERK1/2 and Akt, were detected by Western blot analysis. FIG. 6B: Thereafter, p-ERK1/2 and p-Akt were quantified by densitometry, normalized to total ERK1/2 (left) and Akt (right), respectively, and compared with cells in serum-free medium. The results of a representative experiment from a set of three independent experiments are shown. *P<0.05, compared with the positive control.
(§2) HUVECs were grown in F-12K medium in the presence of endothelial cell growth supplement (ECGS) (BD Biosciences) and 15% FBS. Confluent cells were starved in basal medium (without ECGS and FBS) for 6 h. Then the cells were pretreated for 1 h with different concentrations (10, 50, and 100 μg/mL) of a peptide (NQR, ADK, or RGD) in fresh basal medium, followed by treatment with VEGF (10 ng/mL) for another 20 min. The conditional medium was discarded, and the cells were lysed using a lysis buffer containing protease inhibitors and phosphatase inhibitors. The cell lysate was then centrifuged, and the resulting supernatant was used for analysis of signaling molecules using specific antibodies to human pERK1/2, ERK1/2, pAkt, Akt, and GAPDH (Cell Signaling Technology) by Western blot analysis. The intensity of the bands in the gel was quantified by densitometry. The levels of p-ERK1/2 and p-Akt were normalized to total ERK1/2 and Akt, respectively, and compared with cells in serum-free medium.

Akt = assay: VEGF-induced signaling in HUVECs, Western blot p-Akt; format: cell-based, human; settings: peptide 10, 50, 100 μg/mL 1 h, then VEGF 10 ng/mL 20 min
Description: as §1, §2

[3] = test system: adjuvant arthritis in Lewis rats; assay: Antiarthritic activity in the adjuvant arthritis (AA) model, arthritic score; format: in vivo, Lewis rat
Description: FIG. 3A: Group of arthritic Lewis rats (n=4 per group) were injected with a peptide (AD, NQR, or RGD) or PBS i.v. on the days indicated by the arrows either at the onset or just after the onset of arthritis. The its were monitored regularly for the disease severity, presented as “arthritic score”. […] The sections were graded for histopathological features associated with arthritis. B, bone; C, cartilage, JS, joint space; SIC, synovium-infiltrating cells.
The synthetic peptide corresponding to the selected phage-encoded peptide was diluted in PBS and injected i.v. into Lewis rats beginning either at the onset or just after the onset of arthritis after Mtb injection. The peptide was injected to rats on alternate days at a dose of 1 or 2 mg/kg body weight. A total of three or four injections were given to each rat. Control animals received an equal volume of PBS. All rats were graded regularly for clinical signs of arthritis (36). The hind paws of these rats were harvested and processed for histopathological examination.
AA was induced in Lewis rats by immunizing them with 1 mg/rat of heat-killed M. tuberculosis H37Ra (Mtb; Difco) in 200 μL of mineral oil (Sigma-Aldrich) via s.c. injection at the base of the tail. Beginning on day 7 after immunization, the rats were observed regularly for signs of arthritis in the paws. The severity of arthritis was evaluated based on erythema and swelling as described previously. The highest score for each paw was 4, and the total maximum score for each rat was 16. The course of AA in the Lewis rat involved the following phases: incubation (days 0-8), onset (days 9-11), peak (days 15-18), and recovery (days 21-27).

αvβ3 = molecular target: T1, αvβ3 (Oryctolagus cuniculus, UniProt A0A5F9CTL5+A0A5F9D0E2); settings: intra-articular injection, rabbits with antigen-induced arthritis; cited from earlier work
T1 construct: host or cells: rabbit joints in vivo (intra-articular injection)
T1 sequence (A0A5F9D0E2 30-1047): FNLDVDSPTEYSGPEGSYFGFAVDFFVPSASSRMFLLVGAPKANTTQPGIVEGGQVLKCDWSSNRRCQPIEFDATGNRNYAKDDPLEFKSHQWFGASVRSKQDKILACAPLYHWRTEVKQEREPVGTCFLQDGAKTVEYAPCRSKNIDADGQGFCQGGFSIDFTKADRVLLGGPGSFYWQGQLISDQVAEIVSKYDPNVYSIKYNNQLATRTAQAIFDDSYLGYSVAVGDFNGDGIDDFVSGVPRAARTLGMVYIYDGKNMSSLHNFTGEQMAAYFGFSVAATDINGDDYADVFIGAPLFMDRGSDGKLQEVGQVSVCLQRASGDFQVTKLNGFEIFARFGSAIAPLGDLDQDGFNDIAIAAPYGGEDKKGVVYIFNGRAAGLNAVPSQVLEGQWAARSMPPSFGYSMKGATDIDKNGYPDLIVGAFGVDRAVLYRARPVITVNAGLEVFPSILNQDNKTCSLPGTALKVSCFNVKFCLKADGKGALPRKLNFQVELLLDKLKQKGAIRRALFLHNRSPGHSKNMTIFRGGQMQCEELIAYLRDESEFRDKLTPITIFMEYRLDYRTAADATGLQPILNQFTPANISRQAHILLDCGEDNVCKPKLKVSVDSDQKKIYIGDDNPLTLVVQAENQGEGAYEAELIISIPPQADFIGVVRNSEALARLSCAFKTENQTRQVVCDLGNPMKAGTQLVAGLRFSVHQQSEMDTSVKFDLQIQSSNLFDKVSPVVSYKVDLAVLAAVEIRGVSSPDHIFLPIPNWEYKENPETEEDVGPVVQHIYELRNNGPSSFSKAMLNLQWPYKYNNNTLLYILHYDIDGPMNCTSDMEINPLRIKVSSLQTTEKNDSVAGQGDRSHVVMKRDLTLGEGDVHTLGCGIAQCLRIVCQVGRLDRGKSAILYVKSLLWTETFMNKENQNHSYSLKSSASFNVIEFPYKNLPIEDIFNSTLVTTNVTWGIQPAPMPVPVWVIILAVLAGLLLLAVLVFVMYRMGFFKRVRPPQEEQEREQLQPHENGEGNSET
T1 sequence (A0A5F9CTL5 1-785): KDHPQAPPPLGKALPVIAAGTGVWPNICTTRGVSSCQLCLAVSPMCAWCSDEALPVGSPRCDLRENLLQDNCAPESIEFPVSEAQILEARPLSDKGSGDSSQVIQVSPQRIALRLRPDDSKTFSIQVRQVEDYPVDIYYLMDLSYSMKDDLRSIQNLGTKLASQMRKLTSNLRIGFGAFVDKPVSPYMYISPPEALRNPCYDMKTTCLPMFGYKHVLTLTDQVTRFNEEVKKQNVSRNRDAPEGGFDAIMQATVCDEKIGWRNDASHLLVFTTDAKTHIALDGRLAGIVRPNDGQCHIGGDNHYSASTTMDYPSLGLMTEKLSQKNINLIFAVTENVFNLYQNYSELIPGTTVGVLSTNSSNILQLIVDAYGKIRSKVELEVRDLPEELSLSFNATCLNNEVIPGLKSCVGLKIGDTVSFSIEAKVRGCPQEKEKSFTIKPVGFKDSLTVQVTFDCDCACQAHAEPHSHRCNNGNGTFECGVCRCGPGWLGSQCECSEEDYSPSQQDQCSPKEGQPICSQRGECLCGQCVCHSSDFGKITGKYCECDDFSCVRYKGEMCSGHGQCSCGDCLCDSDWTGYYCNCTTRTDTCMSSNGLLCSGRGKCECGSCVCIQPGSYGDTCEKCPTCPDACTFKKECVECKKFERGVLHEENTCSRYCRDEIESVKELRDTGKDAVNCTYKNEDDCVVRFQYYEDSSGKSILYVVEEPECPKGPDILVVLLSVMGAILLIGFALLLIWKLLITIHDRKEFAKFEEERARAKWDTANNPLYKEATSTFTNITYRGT

| Substance | homing of peptide [1] | effect on endothelial cell tube formation (HUVECs) | effect on attachment of HUVECs to vitronectin [2] | effect on VEGF-induced pERK (ERK1/2) | effect on VEGF-induced pAkt (Akt) | difference in arthritic score versus PBS/ADK ([3]; from day 15 to day 27 (FIG. 3A center)) | suppression of the arthritic process ([3]; i.v. injection around the time of onset of arthritis, 1 or 2 mg/kg on alternate days) | down-modulation of arthritis ([3]; injected just after the onset of AA) | effect on arthritis (αvβ3) |
| --- | --- | --- | --- | --- | --- | --- | --- | --- | --- |
| CKSTHDRLC [literature peptide homing to human synovial tissue engrafted in SCID mice] | homing to the human synovial tissue | – | – | – | – | – | – | – | – |
| CRNADKFPC (Synthetic peptide homing to joint in an animal) [ADK peptide, joint-homing phage-derived synthetic peptide] | – | had no effect | Neither peptide had any effect | had no effect | had no effect | – | – | – | – |
| RGDfK [RGD peptide, reference compound] | – | inhibited tube formation | significantly inhibited cell attachment | the opposite was observed | the opposite was observed | significant | also suppressed arthritis | effective in down-modulating arthritis | – |
| RGDfV | – | – | – | – | – | – | – | – | reduce clinical arthritis, synovial angiogenesis, and joint damage |
